What was measured:
[1] = target: human mGluR1 (Homo sapiens (Human), UniProt Q13255); assay: mGluR1 antagonism, L-glutamate induced intracellular calcium increase (FLIPR) in CHO cells stably expressing human mGluR1; assay type: cell-based; conditions: for IC50: L-glutamate induced intracellular calcium, CHO cells expressing human mGluR1, FLIPR; for inhibition at 10 µM: CHO
[2] = target: human mGluR5a receptors (Homo sapiens (Human), UniProt P41594); assay: inhibition of glutamate-induced elevation of intracellular calcium in L(tk-) cells expressing human mGluR5a; assay type: cell-based; conditions: for IC50: glutamate-induced intracellular calcium elevation, L(tk-) cells expressing human mGluR5a, read-out: mGluR5 IC50
human mGluR5a receptors, sequence (P41594 other isoform, or with tags, fused parts or gaps): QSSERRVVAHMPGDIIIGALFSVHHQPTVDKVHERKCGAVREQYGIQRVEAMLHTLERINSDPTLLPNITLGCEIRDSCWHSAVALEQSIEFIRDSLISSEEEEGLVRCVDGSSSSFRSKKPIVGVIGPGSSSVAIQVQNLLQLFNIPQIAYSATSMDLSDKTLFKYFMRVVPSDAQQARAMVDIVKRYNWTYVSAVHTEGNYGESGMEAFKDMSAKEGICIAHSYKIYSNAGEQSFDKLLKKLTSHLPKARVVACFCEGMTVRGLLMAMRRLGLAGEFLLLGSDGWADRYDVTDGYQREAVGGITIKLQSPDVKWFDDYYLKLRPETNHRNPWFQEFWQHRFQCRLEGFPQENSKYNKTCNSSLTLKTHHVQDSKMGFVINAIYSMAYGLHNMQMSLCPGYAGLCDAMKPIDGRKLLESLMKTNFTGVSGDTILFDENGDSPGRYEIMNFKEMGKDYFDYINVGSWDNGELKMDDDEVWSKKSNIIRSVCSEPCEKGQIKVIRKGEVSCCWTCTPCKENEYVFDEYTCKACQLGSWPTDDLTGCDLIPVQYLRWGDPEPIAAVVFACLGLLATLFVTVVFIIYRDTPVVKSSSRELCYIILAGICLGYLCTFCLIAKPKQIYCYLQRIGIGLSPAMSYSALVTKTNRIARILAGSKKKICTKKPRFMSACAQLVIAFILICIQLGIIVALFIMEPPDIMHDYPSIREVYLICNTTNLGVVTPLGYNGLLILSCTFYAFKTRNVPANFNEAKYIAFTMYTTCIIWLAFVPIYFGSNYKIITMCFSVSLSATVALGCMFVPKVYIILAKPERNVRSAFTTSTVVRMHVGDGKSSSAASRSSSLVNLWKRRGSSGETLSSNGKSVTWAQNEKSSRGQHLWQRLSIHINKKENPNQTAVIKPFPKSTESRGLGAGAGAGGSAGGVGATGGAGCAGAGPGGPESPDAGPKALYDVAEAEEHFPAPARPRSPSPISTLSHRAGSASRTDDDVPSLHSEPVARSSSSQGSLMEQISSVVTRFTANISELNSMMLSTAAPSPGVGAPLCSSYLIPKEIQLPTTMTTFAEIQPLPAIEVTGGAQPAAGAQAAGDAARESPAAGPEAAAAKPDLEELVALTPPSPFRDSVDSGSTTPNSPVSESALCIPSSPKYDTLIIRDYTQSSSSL
Outline: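 Compounds tested for inhibition of the glutamate-induced rise in intracellular calcium concentration in L(tk-) cells stably expressing human mGluR5a.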

human mGluR1, sequence (Q13255 19-1194): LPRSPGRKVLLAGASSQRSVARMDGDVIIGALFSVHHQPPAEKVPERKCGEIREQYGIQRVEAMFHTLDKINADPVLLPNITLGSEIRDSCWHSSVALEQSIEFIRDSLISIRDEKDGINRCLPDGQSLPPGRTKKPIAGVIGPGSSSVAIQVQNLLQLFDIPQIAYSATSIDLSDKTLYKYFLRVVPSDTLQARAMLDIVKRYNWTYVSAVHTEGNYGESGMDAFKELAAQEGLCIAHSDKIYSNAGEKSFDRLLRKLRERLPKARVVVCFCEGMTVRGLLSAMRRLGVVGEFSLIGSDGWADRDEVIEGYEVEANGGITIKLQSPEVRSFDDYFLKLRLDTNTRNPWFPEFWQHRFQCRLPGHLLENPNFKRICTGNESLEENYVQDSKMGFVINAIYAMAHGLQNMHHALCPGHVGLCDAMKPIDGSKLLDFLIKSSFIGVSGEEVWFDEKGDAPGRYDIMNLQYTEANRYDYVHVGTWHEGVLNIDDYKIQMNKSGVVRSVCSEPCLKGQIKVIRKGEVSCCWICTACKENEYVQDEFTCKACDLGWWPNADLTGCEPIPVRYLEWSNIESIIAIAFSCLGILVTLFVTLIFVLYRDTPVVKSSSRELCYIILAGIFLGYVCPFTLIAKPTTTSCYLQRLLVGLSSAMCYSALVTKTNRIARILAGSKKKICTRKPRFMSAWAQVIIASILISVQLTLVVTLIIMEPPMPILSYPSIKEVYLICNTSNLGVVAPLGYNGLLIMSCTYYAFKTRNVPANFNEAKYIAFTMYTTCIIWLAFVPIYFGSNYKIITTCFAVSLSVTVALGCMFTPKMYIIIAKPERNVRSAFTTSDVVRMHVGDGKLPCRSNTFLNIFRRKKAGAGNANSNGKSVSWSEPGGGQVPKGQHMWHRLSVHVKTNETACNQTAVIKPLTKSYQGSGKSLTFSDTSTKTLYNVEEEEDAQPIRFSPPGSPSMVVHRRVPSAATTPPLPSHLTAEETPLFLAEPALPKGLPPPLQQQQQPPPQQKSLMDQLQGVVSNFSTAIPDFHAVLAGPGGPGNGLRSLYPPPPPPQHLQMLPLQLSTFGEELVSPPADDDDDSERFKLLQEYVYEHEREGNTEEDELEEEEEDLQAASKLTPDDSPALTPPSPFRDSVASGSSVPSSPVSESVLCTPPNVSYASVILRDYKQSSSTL

Row | IC50 [1] | IC50 [2] | inhibition at 10 µM [1] | inhibition at 2 µM ([2]; LTK, read-out: mGluR5 % inhibition at 2 μM) | inhibition at 10 µM ([2]; LTK, read-out: mGluR5 % inhibition at 10 μM) | SMILES
1 | 636 nM | < 1 nM |  |  |  | Cc1ncn(C2=NCC(=O)N3CCc4c(cccc4C4CCC4)C3=C2)n1 [Example 92, 9-cyclobutyl-2-(3-methyl-1H-1,2,4-triazol-1-yl)-7,8-dihydro-[1,4]diazepino[7,1-a]isoquinolin-5(4H)-one]
2 | > 10000 nM | 1090 nM |  |  |  | O=C1CN=C(n2cnc(C3(O)COC3)c2)C=C2c3cccc(-c4ccc(F)nc4)c3CCN12 [Example 106c, 9-(6-fluoropyridin-3-yl)-2-(4-(3-hydroxyoxetan-3-yl)-1H-imidazol-1-yl)-7,8-dihydro-[1,4]diazepino[7,1-a]isoquinolin-5(4H)-one]
3 | > 10000 nM | 550 nM |  |  |  | COc1cccc(C2=NCC(=O)N3CCc4c(OC)cc(Cl)cc4C3=C2)c1 [Example 14, 11-chloro-9-methoxy-2-(3-methoxyphenyl)-7,8-dihydro-[1,4]diazepino[7,1-a]isoquinolin-5(4H)-one]
4 | > 10000 nM | 1600 nM |  |  |  | COCCOCc1cccc2c1CCN1C(=O)CN=C(c3cccc(OC)c3)C=C21 [Example 44, 9-((2-methoxyethoxy)methyl)-2-(3-methoxyphenyl)-7,8-dihydro-[1,4]diazepino[7,1-a]isoquinolin-5(4H)-one]
5 |  | 5 nM | 24% |  |  | CCCc1cccc2c1CCN1C(=O)CN=C(n3cnc(-c4ncco4)c3)C=C21 [Example 88a, 2-(4-(oxazol-2-yl)-1H-imidazol-1-yl)-9-propyl-7,8-dihydro-[1,4]diazepino[7,1-a]isoquinolin-5(4H)-one]
6 | 3500 nM | 2200 nM |  |  |  | COc1cccc2c1CCN1C(=O)CN=C(c3cccc(C(F)(F)F)c3)C=C21 [Example 16, 9-methoxy-2-(3-(trifluoromethyl)phenyl)-7,8-dihydro-[1,4]diazepino[7,1-a]isoquinolin-5(4H)-one]
7 | 511 nM | 11 nM |  |  |  | COc1cn(C2=NCC(=O)N3CCc4c(cccc4C4CC4)C3=C2)cn1 [Example 123d, 9-cyclopropyl-2-(4-methoxy-1H-imidazol-1-yl)-7,8-dihydro-[1,4]diazepino[7,1-a]isoquinolin-5(4H)-one]
8 | > 10000 nM | 153 nM |  |  |  | Cc1cn(C2=NCC(=O)N3CCc4c(ccc(F)c4-c4cccnc4F)C3=C2)cn1 [Example 99s, 10-fluoro-9-(2-fluoropyridin-3-yl)-2-(4-methyl-1H-imidazol-1-yl)-7,8-dihydro-[1,4]diazepino[7,1-a]isoquinolin-5(4H)-one]
9 | > 10000 nM | 115 nM |  |  |  | Cc1cn(C2=NCC(=O)N3CCc4c(cccc4-c4coc(C)n4)C3=C2)cn1 [Example 108c, 2-(4-methyl-1H-imidazol-1-yl)-9-(2-methyloxazol-4-yl)-7,8-dihydro-[1,4]diazepino[7,1-a]isoquinolin-5(4H)-one]
10 | 1400 nM | 715 nM |  |  |  | Cc1cn(C2=NCC(=O)N3CCc4c(I)cccc4C3=C2)c(C)n1 [Example 67, 2-(2,4-dimethyl-1H-imidazol-1-yl)-9-iodo-7,8-dihydro-[1,4]diazepino[7,1-a]isoquinolin-5(4H)-one]
11 | > 10000 nM | 91 nM |  |  |  | Cc1nc(-c2cccc3c2CCN2C(=O)CN=C(n4cnc(C5CC5)n4)C=C32)co1 [Example 108a, 2-(3-cyclopropyl-1H-1,2,4-triazol-1-yl)-9-(2-methyloxazol-4-yl)-7,8-dihydro-[1,4]diazepino[7,1-a]isoquinolin-5(4H)-one]
12 | 3400 nM | 32 nM |  |  |  | CC(C)n1cc(C2=NCC(=O)N3CCc4c(cccc4-n4cccn4)C3=C2)cn1 [Example 42, 2-(1-isopropyl-1H-pyrazol-4-yl)-9-(1H-pyrazol-1-yl)-7,8-dihydro-[1,4]diazepino[7,1-a]isoquinolin-5(4H)-one]
13 | > 10000 nM |  |  | 72% |  | CO[C@H](C)c1cn(C2=NCC(=O)N3CCc4c(ccnc4C4CC4)C3=C2)cn1 [Example 110c, (R)-9-cyclopropyl-2-(4-(1-methoxyethyl)-1H-imidazol-1-yl)-7,8-dihydro-[1,4]diazepino[7,1-a][2,6]naphthyridin-5(4H)-one]
14 | > 10000 nM | 46 nM |  |  |  | COc1cc(C2=NCC(=O)N3CCc4c(cccc4-c4ccccn4)C3=C2)ccn1 [Example 50, 2-(2-methoxypyridin-4-yl)-9-(pyridin-2-yl)-7,8-dihydro-[1,4]diazepino[7,1-a]isoquinolin-5(4H)-one]
15 | 1600 nM | 39 nM |  |  |  | C=Cc1cccc2c1CCN1C(=O)CN=C(n3cnc(COC)c3)C=C21 [Example 85, 2-(4-(methoxymethyl)-1H-imidazol-1-yl)-9-vinyl-7,8-dihydro-[1,4]diazepino[7,1-a]isoquinolin-5(4H)-one]
16 | 2080 nM | 6 nM |  |  |  | CO[C@H](C)c1cn(C2=NCC(=O)N3CCc4c(ccc(F)c4C4CC4)C3=C2)cn1 [Example 99n, (R)-9-cyclopropyl-10-fluoro-2-(4-(1-methoxyethyl)-1H-imidazol-1-yl)-7,8-dihydro-[1,4]diazepino[7,1-a]isoquinolin-5(4H)-one]
17 | > 10000 nM | 7 nM |  |  |  | COc1cc(C2=NCC(=O)N3CCc4c(cccc4-c4ccc(F)nc4)C3=C2)ccn1 [Example 53, 9-(6-fluoropyridin-3-yl)-2-(2-methoxypyridin-4-yl)-7,8-dihydro-[1,4]diazepino[7,1-a]isoquinolin-5(4H)-one]
18 | 1480 nM | 79 nM |  |  |  | O=C1CN=C(n2cnc(C3CC3)c2)C=C2c3cccc(-n4nccn4)c3CCN12 [Example 138, 2-(4-cyclopropyl-1H-imidazol-1-yl)-9-(2H-1,2,3-triazol-2-yl)-7,8-dihydro-[1,4]diazepino[7,1-a]isoquinolin-5(4H)-one]
19 | > 10000 nM | 540 nM |  |  |  | Cc1cn(C2=NCC(=O)N3CCc4c(cccc4-c4cncnc4)C3=C2)cn1 [Example 78, 2-(4-methyl-1H-imidazol-1-yl)-9-(pyrimidin-5-yl)-7,8-dihydro-[1,4]diazepino[7,1-a]isoquinolin-5(4H)-one]
20 | 2200 nM | 270 nM |  |  |  | Cn1cc(C2=NCC(=O)N3CCc4c(CO)cccc4C3=C2)cn1 [Example 46, 9-(hydroxymethyl)-2-(1-methyl-1H-pyrazol-4-yl)-7,8-dihydro-[1,4]diazepino[7,1-a]isoquinolin-5(4H)-one]
21 | 1100 nM | 5 nM |  |  |  | CO[C@@H](C)c1cn(C2=NCC(=O)N3CCc4c(cccc4C4CC4)C3=C2)cn1 [Example 122, (S)-9-cyclopropyl-2-(4-(1-methoxyethyl)-1H-imidazol-1-yl)-7,8-dihydro-[1,4]diazepino[7,1-a]isoquinolin-5(4H)-one]
22 |  |  | 0% |  | 24% | Cc1cc(-c2cccc3c2CCN2C(=O)CN=C(c4ccn(C)n4)C=C32)ccn1 [Example 56, 2-(1-methyl-1H-pyrazol-3-yl)-9-(2-methylpyridin-4-yl)-7,8-dihydro-[1,4]diazepino[7,1-a]isoquinolin-5(4H)-one]
23 | 3300 nM | 18 nM |  |  |  | Cc1nc(-c2cccc3c2CCN2C(=O)CN=C(n4cnc(C5CC5)c4)C=C32)co1 [Example 108, 2-(4-cyclopropyl-1H-imidazol-1-yl)-9-(2-methyloxazol-4-yl)-7,8-dihydro-[1,4]diazepino[7,1-a]isoquinolin-5(4H)-one]
24 | 170 nM | 9 nM |  |  |  | CCc1cn(C2=NCC(=O)N3CCc4c(cccc4-c4ccco4)C3=C2)cn1 [Example 75, 2-(4-ethyl-1H-imidazol-1-yl)-9-(furan-2-yl)-7,8-dihydro-[1,4]diazepino[7,1-a]isoquinolin-5(4H)-one]
25 | 687 nM | 16 nM |  |  |  | COCc1cn(C2=NCC(=O)N3CCc4c(C5CC5)ccc(F)c4C3=C2)cn1 [Example 99i, 9-cyclopropyl-12-fluoro-2-(4-(methoxymethyl)-1H-imidazol-1-yl)-7,8-dihydro-[1,4]diazepino[7,1-a]isoquinolin-5(4H)-one]
26 | 210 nM | 24 nM |  |  |  | COc1cccc2c1CCN1C(=O)CN=C(c3ccc(C)o3)C=C21 [Example 7, 9-methoxy-2-(5-methylfuran-2-yl)-7,8-dihydro-[1,4]diazepino[7,1-a]isoquinolin-5(4H)-one]
27 | 800 nM | 4500 nM |  |  |  | O=C1CN=C(c2cccs2)C=C2c3cccc(F)c3CCN12 [Example 19, 9-fluoro-2-(thiophen-2-yl)-7,8-dihydro-[1,4]diazepino[7,1-a]isoquinolin-5(4H)-one]
28 | > 10000 nM | 600 nM |  |  |  | COc1cccc(C2=NCC(=O)N3CCc4c(OC)cccc4C3=C2)n1 [Example 9, 9-methoxy-2-(6-methoxypyridin-2-yl)-7,8-dihydro-[1,4]diazepino[7,1-a]isoquinolin-5(4H)-one]
29 | > 2000 nM | 19 nM |  |  |  | O=C1CN=C(n2cnc(C3CC3)n2)C=C2c3cccc(-c4cnc(F)cn4)c3CCN12 [Example 136, 2-(3-cyclopropyl-1H-1,2,4-triazol-1-yl)-9-(5-fluoropyrazin-2-yl)-7,8-dihydro-[1,4]diazepino[7,1-a]isoquinolin-5(4H)-one]

Row | SMILES | IC50 [1] | IC50 [2] | inhibition at 10 µM [1] | inhibition at 2 µM ([2]; LTK, read-out: mGluR5 % inhibition at 2 μM) | inhibition at 10 µM ([2]; LTK, read-out: mGluR5 % inhibition at 10 μM)
30 | COc1cccc(C2=NCC(=O)N3CCc4c(CN(C)C)cccc4C3=C2)c1 [Example 43, 9-((dimethylamino)methyl)-2-(3-methoxyphenyl)-7,8-dihydro-[1,4]diazepino[7,1-a]isoquinolin-5(4H)-one] | > 10000 nM | 685 nM |  |  | 
31 | COc1cccc(C2=NCC(=O)N3CCc4c(cccc4N4CCOCC4)C3=C2)c1 [Example 41, 2-(3-methoxyphenyl)-9-morpholino-7,8-dihydro-[1,4]diazepino[7,1-a]isoquinolin-5(4H)-one] | > 10000 nM | 32 nM |  |  | 
32 | O=C1CN=C(n2cnc(C3CC3)c2)C=C2c3cccc(-c4cnc(F)cn4)c3CCN12 [Example 139, 2-(4-cyclopropyl-1H-imidazol-1-yl)-9-(5-fluoropyrazin-2-yl)-7,8-dihydro-[1,4]diazepino[7,1-a]isoquinolin-5(4H)-one] | 1100 nM | 17 nM |  |  | 
